# Measurements published in US8198330B2, “Therapeutic or prophylactic agent for diabetes, obesity, dyslipidemia or metabolic syndrome comprising benzylamine derivative or pharmaceutically acceptable acid addition salt thereof” (Toray Industries, Inc., priority 2008, dated 2012).
# Assays:
# [1] = tested on: DIO mice; assay: Efficacy in diabetes/obesity-model mice (DIO mice): blood sugar, body weight, fat, triglyceride; format: in vivo, mouse; settings: for Weight of the fat around the mouse testicles / Blood sugar / Increase in body weight / Triglyceride: DIO mouse; for Weight of the fat around the mouse testicles: after ITT (day 27); for Blood sugar / Increase in body weight / Triglyceride: day 26; for Triglyceride: plasma
# Method: C57BL/6J mice grown on a solid feeding stuff containing 60% fat (D12492, Research Diets) since 4 weeks of age, (male, Charles River Laboratories, Japan, 13 weeks of age) were purchased and mice of 16 weeks of age grown on D12492 since the day of arrival were used. C57BL/6J mice of 16 weeks of age grown on normal food since the day of arrival were used in the normal group. The compound of Example 1 was diluted to 2 mg/mL or 0.6 mg/mL, as it is dissolved in physiological saline, and the solution was administered subcutaneously in an amount of 5 mL/kg, by using a disposable syringe (Terumo) and a 26G injection needle (Terumo). Physiological saline was administered in the vehicle group. The solution was administered once a day from the day of first administration (day 0) to day 26. The body weight was determined on day 26; the tail vein was cut open with a knife (disposable scalpel, FEATHER); and the blood sugar was determined with a simplified blood sugar analyzer (MediSense Precision Xceed, Abotto Japan).
# The blood was collected (approximately 70 μL) from the same site by using a heparin-treated capillary (Hematokrit Kapilaren, 75 μL, […] LABORGERATE) and the collected blood was centrifuged (12,000 rpm, 7 min, 4° C.) in a hematocrit centrifuge (KUBOTA3100, Kubota Corp.) and the plasma was stored, as it is frozen in an Eppendorf tube, until it is used for measurement of triglyceride. The triglyceride measurement was carried out by using Triglyceride E-Test Wako (Wako Pure Chemical Industries). Four μL of the sample was added to 250 μL of the coloring liquid, after reaction at 37° C. for 1 hour, and the absorbance (595 nm) of the mixture was determined by using a microplate reader (Bio-Rad, Model 680). Separately, insulin tolerance test (ITT) was performed on day 27.
# The insulin level was measured by using an insulin measurement kit (Lebis Insulin Mouse U, Shibayagi). Finally, HOMA-IR was also calculated from the values of fasting blood sugar and fasting insulin. The weight of the fat around the mouse testicles was also determined after measurement of ITT. Statistical treatment of the individual data obtained was carried out by a two-group test (unpaired t-test) or a multiplex comparison test (parametric Williams test).
# [2] = tested on: conscious rat; assay: Effect on the cardiovascular system (heart rate) of conscious rat; format: in vivo; settings: conscious SD rat, s.c. 1, 3 and 10 mg/kg at 30 minute intervals, FIG. 2
# Method: SD male rats of 7 weeks of age (Charles River Laboratories Japan Inc.) were purchased and used when they are 8 weeks of age. The rats were anesthetized by intraperitoneal administration of pentobarbital at 60 mg/kg; the back central region and the femoral region were cut open; a polyethylene tube (SP-31, Natsume Seisakusho Co., Ltd.) connected to a polyurethane tube (BC-3.5P, American Access Technologies) was inserted from the back to the femoral region, to place the polyethylene tube in femoral artery. After the femoral region was sutured, a flexible stainless steel pipe containing the polyethylene tube was sutured and fixed to the back skin. Heparin at 100 IU to 200 IU/mL was filled into the polyethylene tube and the polyurethane tube for prevention of blood clotting. After surgical operation, the rats were placed and grown back in 5-compartment wire mesh cage. […]
# The heart rate of the rats was determined, by sending the pulse wave obtained in the blood pressure amplifier (AP-641G, Nihon Kohden Corp.) attached to the Life Kit for monitoring blood pressure to an instantaneous heart rate meter unit (AT-601T, Nihon Kohden Corp.). The heart rate was recorded on the chart paper in a thermal multirecorder (RIA-1300A, Nihon Kohden Corp.) by using a polygraph (RM-6000, Nihon Kohden Corp.). […]
smiles,measurement,setting,value
"COc1cc(CN[C@@H](C)[C@H](O)c2ccc(O)c(NS(C)(=O)=O)c2)cc(OC)c1 [Example 1, N-(5-((1R,2S)-2-(3,5-Dimethoxybenzylamino)-1-hydroxypropyl)-2-hydroxyphenyl)methanesulfonamide]",blood sugar-reducing effect,[1]; DIO mice,significant blood sugar-reducing effect
same,increase in body weight versus vehicle group,[1]; DIO mice,Significant suppression of increase in body weight
same,plasma triglyceride (TG) versus vehicle group,[1]; DIO mice,declined statistically significantly
same,weight of the fat around the mouse testicles versus vehicle group,[1]; DIO mice,declined significantly
same,Weight of the fat around the mouse testicles,[1]; 3 mg/kg s.c. once a day,2.6 ± 0.1 g
same,Blood sugar,[1]; 3 mg/kg s.c. once a day,177 ± 9 mg/dL
same,Increase in body weight,[1]; 3 mg/kg s.c. once a day,3.5 ± 0.6 g
same,Weight of the fat around the mouse testicles,[1]; 10 mg/kg s.c. once a day,2.3 ± 0.1 g
same,Blood sugar,[1]; 10 mg/kg s.c. once a day,168 ± 8 mg/dL
same,Increase in body weight,[1]; 10 mg/kg s.c. once a day,2.1 ± 0.5 g
same,Triglyceride,[1]; 3 mg/kg s.c. once a day,162 ± 14 mg/dL
same,Triglyceride,[1]; 10 mg/kg s.c. once a day,129 ± 9 mg/dL
same,influence on heart rate,[2],did not have any influence on rat heart rate
